Results as given in patent publication US20030134842A1, “METHODS FOR THE TREATMENT OR PREVENTION OF INFLAMMATORY DISEASES CHARACTERIZED BY ABNORMAL CELL PROLIFERATION” (priority 1997, published 2003).
Read-outs that look alike come from different tables or passages of the source.

How the values were obtained:
Type in all cases: cell-based
HCT-15 = assay: SRB antiproliferative assay HCT-15; details: Homo sapiens; HCT-15 (Colon), 5% FCS/5 day incubation; read-out: Test Compound IC50
Source text: (§1) The cells were passaged using Trypsin (Gibco).

MDA-MB-23 = assay: SRB antiproliferative assay MDA-MB-23
Source text: as §1

HTB174 = assay: SRB antiproliferative assay HTB174; details: HTB174 (Lung), 5% FCS/5 day incubation; read-out: Test Compound IC50
Source text: as §1

HUVEC = assay: SRB assay normal cells HUVEC; details: HUVEC (Normal human), 5% FCS/5 day incubation; read-out: Test Compound IC50
Source text: as §1

HeLa = assay: SRB antiproliferative assay HeLa; details: Homo sapiens; HeLa (Cervical), 5% FCS/5 day incubation; read-out: Test Compound IC50
Source text: as §1

A549 = assay: SRB antiproliferative assay A549; details: Homo sapiens
Source text: as §1

MCF7 = assay: SRB antiproliferative assay MCF7; details: Homo sapiens
Source text: as §1

SK-MEL-28 = assay: SRB antiproliferative assay SK-MEL-28; details: Homo sapiens; SK-MEL-28 (Melanoma), 5% FCS/5 day incubation; read-out: Test Compound IC50
Source text: as §1

MMRU = assay: SRB antiproliferative assay MMRU; details: Homo sapiens
Source text: as §1

HEPG2 = assay: SRB antiproliferative assay HEPG2; details: Homo sapiens
Source text: as §1

HT29 = assay: SRB antiproliferative assay HT29; details: Homo sapiens
Source text: as §1

L929 = assay: SRB assay normal cells L929; details: L929 (Normal mouse), 5% FCS/5 day incubation; read-out: Test Compound IC50
Source text: as §1

U118MG = assay: SRB antiproliferative assay U118MG; details: Homo sapiens, U-118-MG
Source text: as §1

ACHN = assay: SRB antiproliferative assay ACHN; details: Homo sapiens; ACHN (Renal), 5% FCS/5 day incubation; read-out: Test Compound IC50
Source text: as §1

GM = assay: SRB assay normal cells GM; details: GM (Normal human), 5% FCS/5 day incubation; read-out: Test Compound IC50
Source text: as §1

CaSki = assay: SRB antiproliferative assay CaSki; details: Homo sapiens, Ca-Ski; CaSki (Cervical), 5% FCS/5 day incubation; read-out: Test Compound IC50
Source text: as §1

DU-145 = assay: SRB antiproliferative assay DU-145; details: Homo sapiens; DU-145 (Prostate), 5% FCS/5 day incubation; read-out: Test Compound IC50
Source text: as §1

3T3 = assay: SRB assay normal cells 3T3; details: NIH3T3; 3T3 (Normal mouse), 5% FCS/5 day incubation; read-out: Test Compound IC50
Source text: as §1

[1] = system: NIH 3T3 mouse fibroblast cells; assay: Mitogenic assay (mitogen-induced cell proliferation); details: for IC50: mitogen-induced cell proliferation
SK-OV-3 = assay: SRB antiproliferative assay SK-OV-3; details: Homo sapiens; SK-OV-3 (Ovary), 5% FCS/5 day incubation; read-out: Test Compound IC50
Source text: as §1

[2] = molecular target: T1, Ca2+-activated potassium channel (Gardos channel) of erythrocytes (Homo sapiens, UniProt O15554); assay: Gardos channel assay; details: for inhibition at 10 µM: 10 μM compound
T1 construct: endogenous in cells; host or cells: erythrocytes
T1 sequence (O15554 whole entry): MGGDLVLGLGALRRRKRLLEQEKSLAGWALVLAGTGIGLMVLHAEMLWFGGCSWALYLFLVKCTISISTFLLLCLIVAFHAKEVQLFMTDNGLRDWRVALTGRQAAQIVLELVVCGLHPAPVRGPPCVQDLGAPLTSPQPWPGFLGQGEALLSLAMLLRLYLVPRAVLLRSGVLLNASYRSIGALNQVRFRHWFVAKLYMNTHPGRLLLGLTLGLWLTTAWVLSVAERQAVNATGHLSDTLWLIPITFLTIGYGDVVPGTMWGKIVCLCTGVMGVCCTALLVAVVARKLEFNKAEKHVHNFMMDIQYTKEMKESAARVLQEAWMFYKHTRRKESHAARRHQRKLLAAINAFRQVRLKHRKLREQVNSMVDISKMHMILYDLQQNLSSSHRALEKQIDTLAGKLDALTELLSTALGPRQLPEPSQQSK

[3] = MDA-MB-23, read-out: Test Compound IC50
[4] = A549 (Lung), 5% FCS/5 day incubation, read-out: Test Compound IC50
[5] = MCF7 (Breast), 5% FCS/5 day incubation, read-out: Test Compound IC50
[6] = MMRU (Melanoma), 5% FCS/5 day incubation, read-out: Test Compound IC50
[7] = HEPG2 (Hepatocel), 5% FCS/5 day incubation, read-out: Test Compound IC50
[8] = HT-29, HT29 (Colon), 5% FCS/5 day incubation, read-out: Test Compound IC50
[9] = U118MG (CNS), 5% FCS/5 day incubation, read-out: Test Compound IC50
[10] = MDA-MB-23 (Breast), 5% FCS/5 day incubation, read-out: Test Compound IC50
[11] = Mus musculus, NIH3T3, NIH 3T3 mouse fibroblast cells
[12] = A549, A549 (Lung), 5% FCS/5 day incubation, read-out: Test Compound IC50
[13] = A549, A549, 5% FCS/3 days, read-out: Test Compound IC50 Value in Cell Lines
[14] = MCF7, 5% FCS/3 days, read-out: Test Compound IC50 Value in Cell Lines
[15] = MMRU, 5% FCS/3 days, read-out: Test Compound IC50 Value in Cell Lines
[16] = HEPG2, 5% FCS/3 days, read-out: Test Compound IC50 Value in Cell Lines
[17] = HT-29, HT29, 5% FCS/3 days, read-out: Test Compound IC50 Value in Cell Lines
[18] = U118MG, 5% FCS/3 days, read-out: Test Compound IC50 Value in Cell Lines

Row | SMILES | IC50 (HCT-15) | IC50 (HTB174) | IC50 (HUVEC) | IC50 (HeLa) | IC50 (MCF7; [5]) | IC50 (SK-MEL-28) | IC50 (MMRU; [6]) | IC50 (HEPG2; [7]) | IC50 (HT29; [8]) | IC50 (L929) | IC50 (U118MG; [9]) | IC50 (ACHN) | IC50 (GM) | IC50 (CaSki) | IC50 (DU-145) | IC50 (3T3) | IC50 [1, 11] | IC50 (SK-OV-3) | IC50 (A549; [12]) | inhibition at 10 µM [2] | also measured
1 | COc1cc([C@@H]2c3cc4c(cc3[C@@H](O[C@@H]3O[C@@H]5CO[C@@H](C)O[C@H]5[C@H](O)[C@H]3O)[C@H]3COC(=O)[C@H]23)OCO4)cc(OC)c1O [VP-16, Etoposide, reference compound] | 1.3 µM | < 1.25 µM | < 1.25 µM | < 1.25 µM | < 1.25 µM | < 1.25 µM | < 1.25 µM | < 1.25 µM | < 1.25 µM | < 1.25 µM | 2.2 µM | < 1.25 µM | 1.4 µM | 1.8 µM | < 1.25 µM | – | – | – | – | – | IC50 (MDA-MB-23; [3]): < 1.25 µM; IC50 (A549; [4]): < 1.25 µM; IC50 (A549; A549, 2% FCS/3 days, read-out: Test Compound IC50 Value in Cell Lines): 2.3 µM; IC50 (MCF7; MCF7, 2% FCS/3 days, read-out: Test Compound IC50 Value in Cell Lines): < 2.5 µM; IC50 (MMRU; MMRU, 2% FCS/3 days, read-out: Test Compound IC50 Value in Cell Lines): < 2.5 µM; IC50 (HT29; HT-29, HT29, 2% FCS/3 days, read-out: Test Compound IC50 Value in Cell Lines): 20 µM
2 | COc1ccc(C(=O)N2Cc3ccccc3C(c3ccccc3Cl)c3ccccc32)cc1 (stereo not shown) [Compound 27] | 0.4 µM | 0.3 µM | > 1 µM | 0.2 µM | 0.5 µM | 0.7 µM | 0.2 µM | 0.4 µM | 0.4 µM | > 1 µM | 0.4 µM | > 1 µM | > 1 µM | 0.9 µM | > 1 µM | > 1 µM | 2.2 µM | > 1 µM | 1.1 µM | 3% | IC50 (MDA-MB-23; [10]): > 1 µM; IC50 (A549; [13]): < 1.25 µM; IC50 (MCF7; [14]): < 1.25 µM; IC50 (MMRU; [15]): < 1.25 µM; IC50 (HEPG2; [16]): < 1.25 µM; IC50 (HT29; [17]): < 1.25 µM; IC50 (U118MG; [18]): 1.9 µM; IC50 [2]: > 10 µM
3 | O=C(c1ccc([N+](=O)[O-])cc1)N1Cc2ccccc2C(c2ccccc2Cl)c2ccccc21 (stereo not shown) [Compound 28, N-(4′-nitrobenzoyl)-11-(2′-chlorophenyl)-5,6-dihydro-11H-dibenz[b,e]azepine] | 0.4 µM | 0.1 µM | 0.7 µM | 0.3 µM | 0.6 µM | 0.4 µM | 0.2 µM | 0.3 µM | 0.3 µM | 0.6 µM | 0.5 µM | 0.7 µM | 0.9 µM | 0.5 µM | 0.9 µM | > 1 µM | – | > 1 µM | – | 0% | IC50 (MDA-MB-23; [3]): 0.5 µM; Mitogenic Assay Inhibition ([1]; 10 µM compound, NIH 3T3 mouse fibroblast cells): 99.0%; IC50 ([1]; NIH3T3, NIH 3T3 mouse fibroblast cells): 0.04 to 0.5 µM; IC50 (A549; [4]): 0.8 µM; IC50 (A549; A549, 5% FCS/3 days, read-out: Test Compound IC50 Value in Cell Lines): 1.8 µM; IC50 (MCF7; [14]): 2.1 µM; IC50 (MMRU; [15]): < 1.25 µM; IC50 (HEPG2; [16]): < 1.25 µM; IC50 (HT29; [17]): < 1.25 µM; IC50 (U118MG; [18]): 1.3 µM
4 | CNc1ccc(C(=O)N2Cc3ccccc3C(c3ccccc3Cl)c3ccccc32)cc1 (stereo not shown) [Compound 33] | – | 1.4 µM | – | – | 2.1 µM | – | 1.3 µM | 1.4 µM | 1.2 µM | – | – | – | – | – | – | – | 2.4 µM | – | 3.1 µM | 67.5% | IC50 (A549; [13]): 6.9 µM; IC50 (MCF7; [14]): 5.4 µM; IC50 (MMRU; [15]): 4.9 µM; IC50 (HEPG2; [16]): 6.2 µM; IC50 (HT29; [17]): 6.3 µM; IC50 (U118MG; [18]): 6.8 µM; IC50 [2]: > 10 µM
5 | O=C(c1ccc([N+](=O)[O-])cc1)N1Cc2ccccc2C(c2ccccc2)c2ccccc21 (stereo not shown) [Compound 20] | 0.9 µM | 0.7 µM | > 1 µM | 0.6 µM | > 1 µM | 0.9 µM | 0.5 µM | 0.9 µM | 0.7 µM | 0.9 µM | 0.9 µM | > 1 µM | > 1 µM | 0.9 µM | > 1 µM | > 1 µM | 1.7 µM | > 1 µM | > 1 µM | 13.6% | IC50 (MDA-MB-23; [10]): > 1 µM; IC50 [2]: > 10 µM
6 | COc1ccc2c(c1)CN(C(=O)c1ccc([N+](=O)[O-])cc1)c1ccc(Cl)cc1C2c1ccccc1Cl (stereo not shown) [Compound 30] | 0.5 µM | 0.5 µM | > 1 µM | 0.5 µM | 1.3 µM | 0.6 µM | 0.5 µM | 0.9 µM | 0.6 µM | > 1 µM | 0.8 µM | > 1 µM | > 1 µM | 0.7 µM | > 1 µM | > 1 µM | 0.6 µM | > 1 µM | 1.5 µM | 14.6% | IC50 (MDA-MB-23; [10]): 0.9 µM; IC50 (A549; [13]): 1.7 µM; IC50 (MCF7; [14]): 1.6 µM; IC50 (MMRU; [15]): < 1.25 µM; IC50 (HEPG2; [16]): < 1.25 µM; IC50 (HT29; [17]): < 1.25 µM; IC50 (U118MG; [18]): < 1.25 µM; IC50 [2]: > 10 µM
